Measured values: ChEMBL document CHEMBL1201862, “PubChem BioAssay data set” (2004)
The source made the active and inactive calls.

How the values were obtained:
[1] = biological target: T1, Ubiquitin-conjugating enzyme E2 N (Homo sapiens, UniProt P61088); format: functional;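 further: Dose-response confirmation in a TR-FRET assay detecting UBC13-driven polyubiquitin chain formation, inhibition measured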
T1 sequence (P61088 whole entry): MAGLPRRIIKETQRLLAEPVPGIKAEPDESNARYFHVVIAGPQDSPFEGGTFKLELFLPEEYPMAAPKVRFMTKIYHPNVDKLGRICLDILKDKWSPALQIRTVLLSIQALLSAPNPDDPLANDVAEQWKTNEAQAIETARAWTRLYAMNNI

Vero = assay: West Nile virus antiviral activity, cell-based, CPE readout (AID 1621); format: functional; details: Chlorocebus sabaeus
[2] = inhibitors of Vif binding to APOBEC3G peptide, primary screen, biochemical, TR-FRET, GST-Vif 1-94, biotin-A3G peptide, dose response retest (AID 1117319); format: functional;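 further: TR-FRET signal of purified GST-Vif binding a biotinylated A3G peptide; inhibitors lower the FRET signal by blocking Vif and A3G binding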
[3] = A Cell Based Secondary Assay To Explore Cytotoxicity of Compounds that Sensitize Mycobacterium Tuberculosis to Beta-Lactam Antibiotics.; format: functional
[4] = biological target: Peroxisome proliferator-activated receptor gamma/Nuclear receptor coactivator 1 (Homo sapiens, UniProt P37231); format: functional;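 further: agonist potency as compounds enhance coactivator SRC-1 recruitment to PPARgamma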
Sequence of Peroxisome proliferator-activated receptor gamma/Nuclear receptor coactivator 1 (P37231 whole entry): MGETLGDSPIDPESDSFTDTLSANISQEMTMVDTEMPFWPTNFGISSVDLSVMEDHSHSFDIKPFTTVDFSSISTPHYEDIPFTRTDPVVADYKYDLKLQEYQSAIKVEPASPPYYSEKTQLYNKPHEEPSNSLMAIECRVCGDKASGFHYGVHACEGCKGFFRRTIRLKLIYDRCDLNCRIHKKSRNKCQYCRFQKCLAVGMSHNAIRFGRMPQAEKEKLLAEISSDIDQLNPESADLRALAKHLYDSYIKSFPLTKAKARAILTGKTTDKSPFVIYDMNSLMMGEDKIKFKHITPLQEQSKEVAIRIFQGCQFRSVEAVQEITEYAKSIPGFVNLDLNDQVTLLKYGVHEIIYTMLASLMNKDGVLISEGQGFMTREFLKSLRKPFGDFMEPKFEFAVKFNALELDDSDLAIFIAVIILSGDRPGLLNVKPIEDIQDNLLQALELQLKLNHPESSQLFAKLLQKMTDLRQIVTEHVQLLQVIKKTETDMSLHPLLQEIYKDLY
Sequence of Peroxisome proliferator-activated receptor gamma/Nuclear receptor coactivator 1 (Q15788 whole entry, further chain): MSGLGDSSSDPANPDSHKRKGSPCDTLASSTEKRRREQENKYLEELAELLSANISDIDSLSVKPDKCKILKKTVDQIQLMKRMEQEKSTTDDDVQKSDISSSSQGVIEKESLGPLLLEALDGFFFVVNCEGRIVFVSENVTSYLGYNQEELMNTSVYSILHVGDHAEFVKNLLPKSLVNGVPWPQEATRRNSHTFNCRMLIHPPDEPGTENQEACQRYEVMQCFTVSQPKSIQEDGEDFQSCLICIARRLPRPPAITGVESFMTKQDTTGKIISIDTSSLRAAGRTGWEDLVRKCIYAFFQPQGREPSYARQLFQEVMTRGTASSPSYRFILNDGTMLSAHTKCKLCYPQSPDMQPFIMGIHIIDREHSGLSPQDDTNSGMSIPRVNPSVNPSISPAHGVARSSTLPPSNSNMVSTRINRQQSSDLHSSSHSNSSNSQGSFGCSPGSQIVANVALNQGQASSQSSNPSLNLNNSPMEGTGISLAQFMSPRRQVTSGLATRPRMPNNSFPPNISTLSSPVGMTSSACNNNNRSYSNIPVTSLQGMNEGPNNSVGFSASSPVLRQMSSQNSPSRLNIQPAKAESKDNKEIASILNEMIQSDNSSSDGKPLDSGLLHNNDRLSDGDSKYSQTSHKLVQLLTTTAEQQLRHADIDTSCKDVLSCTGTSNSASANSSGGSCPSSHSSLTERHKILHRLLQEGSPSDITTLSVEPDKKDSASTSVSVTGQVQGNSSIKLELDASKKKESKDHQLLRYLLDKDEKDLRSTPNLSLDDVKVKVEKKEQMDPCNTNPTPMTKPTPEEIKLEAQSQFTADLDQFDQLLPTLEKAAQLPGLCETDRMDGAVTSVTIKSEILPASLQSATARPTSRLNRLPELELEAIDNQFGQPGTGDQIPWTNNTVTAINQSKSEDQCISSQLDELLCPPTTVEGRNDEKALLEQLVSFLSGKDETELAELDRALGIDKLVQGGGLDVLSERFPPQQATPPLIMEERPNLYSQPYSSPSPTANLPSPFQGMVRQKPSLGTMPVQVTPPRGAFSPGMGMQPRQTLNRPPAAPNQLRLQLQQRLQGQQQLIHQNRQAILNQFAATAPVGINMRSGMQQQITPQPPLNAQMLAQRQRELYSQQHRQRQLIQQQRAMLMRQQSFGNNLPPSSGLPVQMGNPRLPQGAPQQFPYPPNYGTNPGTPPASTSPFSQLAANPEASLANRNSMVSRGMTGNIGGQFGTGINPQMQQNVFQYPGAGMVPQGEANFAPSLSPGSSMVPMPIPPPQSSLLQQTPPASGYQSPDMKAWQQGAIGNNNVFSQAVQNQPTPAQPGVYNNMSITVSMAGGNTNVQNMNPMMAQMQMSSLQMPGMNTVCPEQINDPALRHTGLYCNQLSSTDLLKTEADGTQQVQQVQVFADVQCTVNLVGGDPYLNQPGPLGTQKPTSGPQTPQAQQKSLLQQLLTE

[5] = biological target: Peroxisome proliferator-activated receptor gamma/Nuclear receptor coactivator 3 (Homo sapiens, UniProt P37231); format: functional;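 further: agonist potency for raising coactivator recruitment to the receptor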
[6] = biological target: Peroxisome proliferator-activated receptor gamma/Nuclear receptor coactivator 2 (Homo sapiens, UniProt P37231); format: functional;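 further: agonist potency for raising coactivator recruitment to the receptor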
NS3 = NS3 (Hepatitis C virus, UniProt A3EZJ3); assay: PubChem AID 2173; design: species or system Hepacivirus hominis
Sequence of NS3 (A3EZJ3 whole entry): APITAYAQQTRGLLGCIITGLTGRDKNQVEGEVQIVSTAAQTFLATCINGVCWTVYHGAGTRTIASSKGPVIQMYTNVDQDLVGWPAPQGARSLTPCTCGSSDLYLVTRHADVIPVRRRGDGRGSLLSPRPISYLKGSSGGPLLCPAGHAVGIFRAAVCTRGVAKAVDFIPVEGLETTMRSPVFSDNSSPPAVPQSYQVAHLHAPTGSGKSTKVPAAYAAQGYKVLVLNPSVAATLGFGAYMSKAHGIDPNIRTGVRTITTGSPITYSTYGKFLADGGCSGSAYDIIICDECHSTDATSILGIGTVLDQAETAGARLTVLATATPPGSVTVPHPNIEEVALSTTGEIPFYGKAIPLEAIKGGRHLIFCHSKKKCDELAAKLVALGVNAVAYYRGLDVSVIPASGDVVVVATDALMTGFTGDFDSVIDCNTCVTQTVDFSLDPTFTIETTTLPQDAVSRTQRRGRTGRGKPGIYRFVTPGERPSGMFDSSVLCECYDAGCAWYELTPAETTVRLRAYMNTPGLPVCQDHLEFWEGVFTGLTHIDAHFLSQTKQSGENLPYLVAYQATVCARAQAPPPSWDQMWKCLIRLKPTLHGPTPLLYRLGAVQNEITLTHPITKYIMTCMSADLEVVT

[7] = biological target: T2, Neuropeptide Y receptor type 1 (Homo sapiens, UniProt P25929); format: functional;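 further: HEK293 cells with a CNG channel challenged with NPY then isoproterenol; potency as antagonist that reverses NPY suppression of cAMP signal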
T2 sequence (P25929 whole entry): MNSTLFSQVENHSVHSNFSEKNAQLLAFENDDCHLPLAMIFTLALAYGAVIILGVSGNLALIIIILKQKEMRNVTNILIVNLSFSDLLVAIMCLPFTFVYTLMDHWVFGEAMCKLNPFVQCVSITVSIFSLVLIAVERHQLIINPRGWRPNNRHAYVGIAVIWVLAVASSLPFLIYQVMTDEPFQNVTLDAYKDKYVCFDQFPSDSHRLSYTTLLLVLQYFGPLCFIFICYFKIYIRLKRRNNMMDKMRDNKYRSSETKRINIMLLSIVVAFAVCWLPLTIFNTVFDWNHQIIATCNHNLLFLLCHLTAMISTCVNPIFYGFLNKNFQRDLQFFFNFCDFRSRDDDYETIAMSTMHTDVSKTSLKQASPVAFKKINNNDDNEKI

[8] = biological target: T3, Neuropeptide Y receptor type 2 (Homo sapiens, UniProt P49146); format: functional, cell-based;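 further: HEK293 cells expressing the receptor and a CNG channel; stimulus was NPY near EC95 followed by isoproterenol to raise cAMP; antagonist potency measured as restoring cAMP signal that NPY suppresses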
T3 sequence (P49146 whole entry): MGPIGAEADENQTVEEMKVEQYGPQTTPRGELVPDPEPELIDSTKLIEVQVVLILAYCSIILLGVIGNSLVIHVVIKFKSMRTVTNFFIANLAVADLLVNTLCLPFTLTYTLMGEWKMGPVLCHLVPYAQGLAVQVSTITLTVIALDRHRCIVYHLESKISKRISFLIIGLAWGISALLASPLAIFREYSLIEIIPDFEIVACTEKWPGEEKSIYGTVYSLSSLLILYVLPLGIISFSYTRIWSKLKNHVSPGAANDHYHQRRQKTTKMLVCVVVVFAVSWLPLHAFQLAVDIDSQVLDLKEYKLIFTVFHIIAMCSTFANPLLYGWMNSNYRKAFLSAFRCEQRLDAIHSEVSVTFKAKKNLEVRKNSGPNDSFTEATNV

[9] = biological target: T4, Alkaline phosphatase, tissue-nonspecific isozyme (Homo sapiens, UniProt P05186); assay: human TNAP enzyme inhibitors, SAR follow-up, biochemical, luminescent, dose response (AID 1056)
T4 sequence (P05186 whole entry): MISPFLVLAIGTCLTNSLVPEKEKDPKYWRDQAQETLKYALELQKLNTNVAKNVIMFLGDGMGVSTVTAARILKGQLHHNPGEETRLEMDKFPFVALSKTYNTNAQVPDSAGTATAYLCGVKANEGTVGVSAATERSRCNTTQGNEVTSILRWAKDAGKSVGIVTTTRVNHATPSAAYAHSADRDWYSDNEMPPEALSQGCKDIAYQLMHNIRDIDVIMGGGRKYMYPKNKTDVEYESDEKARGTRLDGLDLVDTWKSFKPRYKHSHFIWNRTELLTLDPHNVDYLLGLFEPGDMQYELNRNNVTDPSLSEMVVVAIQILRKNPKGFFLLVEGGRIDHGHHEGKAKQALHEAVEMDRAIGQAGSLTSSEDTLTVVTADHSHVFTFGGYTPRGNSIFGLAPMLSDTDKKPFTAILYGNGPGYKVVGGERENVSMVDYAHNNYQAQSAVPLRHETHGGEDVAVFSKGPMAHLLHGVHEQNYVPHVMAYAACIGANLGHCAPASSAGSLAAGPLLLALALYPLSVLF

[10] = biological target: Glyceraldehyde-3-phosphate dehydrogenase (Homo sapiens, UniProt P04406)
Sequence of Glyceraldehyde-3-phosphate dehydrogenase (P04406 whole entry): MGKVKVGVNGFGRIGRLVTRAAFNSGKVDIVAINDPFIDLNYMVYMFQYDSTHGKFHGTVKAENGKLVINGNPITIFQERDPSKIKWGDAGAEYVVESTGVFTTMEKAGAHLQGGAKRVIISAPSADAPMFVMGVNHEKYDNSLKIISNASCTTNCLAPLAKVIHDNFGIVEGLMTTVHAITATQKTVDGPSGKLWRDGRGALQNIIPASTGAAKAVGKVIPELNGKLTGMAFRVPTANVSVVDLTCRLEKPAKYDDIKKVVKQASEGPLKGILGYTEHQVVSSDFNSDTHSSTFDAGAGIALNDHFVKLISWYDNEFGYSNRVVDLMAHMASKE

[11] = biological target: Heat shock cognate 71 kDa protein (Homo sapiens, UniProt P11142); assay: In Vitro Hsc70 Dose Response Fluorescence Polarization Assay. [Related pubchem assays: 1072 ]
Sequence of Heat shock cognate 71 kDa protein (P11142 whole entry): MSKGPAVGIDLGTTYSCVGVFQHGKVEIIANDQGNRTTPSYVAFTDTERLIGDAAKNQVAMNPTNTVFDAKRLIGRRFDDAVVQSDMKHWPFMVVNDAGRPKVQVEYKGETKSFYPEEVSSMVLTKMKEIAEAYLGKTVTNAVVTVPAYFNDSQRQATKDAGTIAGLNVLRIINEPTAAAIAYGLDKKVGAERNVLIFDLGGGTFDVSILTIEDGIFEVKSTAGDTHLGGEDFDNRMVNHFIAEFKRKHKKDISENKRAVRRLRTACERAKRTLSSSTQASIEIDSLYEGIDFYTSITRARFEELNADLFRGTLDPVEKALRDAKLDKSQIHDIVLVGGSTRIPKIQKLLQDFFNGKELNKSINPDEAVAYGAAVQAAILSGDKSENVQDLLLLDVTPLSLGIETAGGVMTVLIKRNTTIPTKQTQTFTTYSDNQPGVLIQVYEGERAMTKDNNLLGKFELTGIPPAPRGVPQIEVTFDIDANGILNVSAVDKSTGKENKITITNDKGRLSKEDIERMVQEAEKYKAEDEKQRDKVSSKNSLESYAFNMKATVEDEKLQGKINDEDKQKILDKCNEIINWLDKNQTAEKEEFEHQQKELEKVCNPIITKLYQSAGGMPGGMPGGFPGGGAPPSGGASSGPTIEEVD

[12] = biological target: Heat shock 70 kDa protein 1A (Homo sapiens, UniProt P0DMV8); assay: Hsp70 inhibitors, SAR follow-up, biochemical, fluorescence polarization (AID 1072)
Sequence of Heat shock 70 kDa protein 1A (P0DMV8 whole entry): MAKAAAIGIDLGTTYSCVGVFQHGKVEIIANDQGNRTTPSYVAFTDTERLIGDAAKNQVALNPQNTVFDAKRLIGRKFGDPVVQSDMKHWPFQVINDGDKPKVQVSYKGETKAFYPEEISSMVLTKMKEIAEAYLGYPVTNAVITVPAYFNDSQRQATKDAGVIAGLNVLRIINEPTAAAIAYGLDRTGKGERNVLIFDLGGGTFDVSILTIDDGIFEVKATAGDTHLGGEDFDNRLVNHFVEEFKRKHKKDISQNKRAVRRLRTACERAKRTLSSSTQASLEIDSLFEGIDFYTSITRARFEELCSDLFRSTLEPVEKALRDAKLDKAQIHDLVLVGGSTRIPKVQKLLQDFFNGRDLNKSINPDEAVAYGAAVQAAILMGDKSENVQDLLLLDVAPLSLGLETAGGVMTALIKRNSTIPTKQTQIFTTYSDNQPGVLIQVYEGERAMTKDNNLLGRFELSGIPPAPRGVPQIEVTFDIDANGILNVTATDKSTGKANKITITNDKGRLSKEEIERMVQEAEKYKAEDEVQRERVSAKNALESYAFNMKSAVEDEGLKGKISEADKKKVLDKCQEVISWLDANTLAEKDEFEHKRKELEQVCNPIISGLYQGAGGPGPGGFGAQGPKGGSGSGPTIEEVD

[13] = biological target: Luciferin 4-monooxygenase (Photinus pyralis, UniProt P08659); assay: Counter Screen for Luciferase-based Assay Positives. [Related pubchem assays: 620, 618, 411 ]
HT-1080 = assay: cytotoxicity in HT1080 fibrosarcoma cells, cell-based, fluorescence readout (AID 620); format: functional; details: Homo sapiens
[14] = biological target: G-protein coupled receptor 55 (Homo sapiens, UniProt Q9Y2T6); assay: GPR55 agonists via beta-arrestin recruitment, primary screen, imaging, U2OS cells, beta-arrestin-GFP redistribution (AID 1961); format: functional
Sequence of G-protein coupled receptor 55 (Q9Y2T6 whole entry): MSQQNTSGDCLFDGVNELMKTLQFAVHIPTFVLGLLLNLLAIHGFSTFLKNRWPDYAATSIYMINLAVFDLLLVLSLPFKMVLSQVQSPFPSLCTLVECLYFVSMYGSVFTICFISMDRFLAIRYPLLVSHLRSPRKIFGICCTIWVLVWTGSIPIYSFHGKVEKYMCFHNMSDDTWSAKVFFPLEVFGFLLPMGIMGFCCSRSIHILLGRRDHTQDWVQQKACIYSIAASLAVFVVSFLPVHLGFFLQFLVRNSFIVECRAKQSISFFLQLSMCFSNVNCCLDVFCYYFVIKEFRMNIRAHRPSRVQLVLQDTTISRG

[15] = inhibitors of Bluetongue virus cytopathic effect, confirmation, arbovirus, BSR cells (AID 1250); format: functional;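 further: protection from viral cytopathic effect measured as cell viability by ATP luminescence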
[16] = biological target: T4, Alkaline phosphatase, tissue-nonspecific isozyme
[17] = biological target: Melanin-concentrating hormone receptor 1 (Homo sapiens, UniProt Q99705); assay: Fluorescence-based counterscreen for antagonists of the G-protein coupled receptor 7 (GPR7): cell-based high throughput dose response assay to identify antagonists of the melanin-concentrating hormone receptor 1 (MCHR1).; format: functional
[18] = biological target: Peroxisome proliferator-activated receptor gamma/Nuclear receptor corepressor 2 (Homo sapiens, UniProt P37231+Q9Y618); format: functional
[19] = biological target: Photoreceptor-specific nuclear receptor (Homo sapiens, UniProt Q9Y5X4); format: functional;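 further: potency for compounds that break the NR2E3 corepressor complex and count as activators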
[20] = biological target: Protein-tyrosine kinase 2-beta (Homo sapiens, UniProt Q14289);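 further: potency of inhibitors of PYK2 kinase phosphorylation of poly-GT substrate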
[21] = biological target: Heat shock protein HSP 90-alpha (Homo sapiens, UniProt P07900); format: functional, organism-based
[22] = growth suppression of PTEN-null colon cells, dose response, cell-based, HCT116 PTEN knockout (AID 1047); format: functional;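 further: HCT116 colon tumor cells with PTEN knocked out; cells exposed to compound for 60 hours before readout; potency for loss of cell viability measured by luminescence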
[23] = growth suppression of beta-catenin-knockout colon cells, dose response, cell-based, HCT116, human colon tumor (AID 1045); format: functional;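 further: HCT116 colon tumor cells with beta catenin knocked out; cells exposed to compound for 60 hours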
[24] = biological target: Mitogen-activated protein kinase 10 (Homo sapiens, UniProt P53779); assay: Dose response biochemical screening assay for inhibitors of c-Jun N-Terminal Kinase 3 (JNK3). [Related pubchem assays: 746 ]
Sequence of Mitogen-activated protein kinase 10 (P53779 whole entry): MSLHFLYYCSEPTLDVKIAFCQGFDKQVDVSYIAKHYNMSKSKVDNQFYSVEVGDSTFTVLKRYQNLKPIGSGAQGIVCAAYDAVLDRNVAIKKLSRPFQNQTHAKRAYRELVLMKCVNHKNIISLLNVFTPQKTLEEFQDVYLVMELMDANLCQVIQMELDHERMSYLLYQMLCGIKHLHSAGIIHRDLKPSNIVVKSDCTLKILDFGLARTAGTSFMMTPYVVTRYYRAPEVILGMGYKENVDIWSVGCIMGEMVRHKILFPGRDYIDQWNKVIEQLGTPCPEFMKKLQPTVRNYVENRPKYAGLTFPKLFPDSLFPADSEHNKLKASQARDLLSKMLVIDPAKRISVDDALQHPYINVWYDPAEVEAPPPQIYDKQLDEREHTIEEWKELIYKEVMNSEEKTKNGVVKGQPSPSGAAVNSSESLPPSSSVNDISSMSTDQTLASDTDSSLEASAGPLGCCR

[25] = biological target: T5, Tyrosine-protein phosphatase non-receptor type 7 (Homo sapiens, UniProt P35236); format: functional
T5 sequence (P35236 whole entry): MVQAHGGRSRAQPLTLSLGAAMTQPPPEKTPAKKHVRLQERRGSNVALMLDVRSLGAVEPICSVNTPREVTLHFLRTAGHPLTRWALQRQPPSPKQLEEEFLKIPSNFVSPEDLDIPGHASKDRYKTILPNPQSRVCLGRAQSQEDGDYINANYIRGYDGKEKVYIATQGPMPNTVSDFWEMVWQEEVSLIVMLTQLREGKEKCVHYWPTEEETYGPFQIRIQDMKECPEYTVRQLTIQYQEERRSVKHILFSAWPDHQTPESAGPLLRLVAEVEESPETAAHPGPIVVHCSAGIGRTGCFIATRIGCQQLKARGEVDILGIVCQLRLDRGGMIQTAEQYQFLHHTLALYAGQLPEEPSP

[26] = biological target: T6, Dual specificity protein phosphatase 6 (Rattus norvegicus, UniProt Q64346); format: functional
T6 sequence (Q64346 whole entry): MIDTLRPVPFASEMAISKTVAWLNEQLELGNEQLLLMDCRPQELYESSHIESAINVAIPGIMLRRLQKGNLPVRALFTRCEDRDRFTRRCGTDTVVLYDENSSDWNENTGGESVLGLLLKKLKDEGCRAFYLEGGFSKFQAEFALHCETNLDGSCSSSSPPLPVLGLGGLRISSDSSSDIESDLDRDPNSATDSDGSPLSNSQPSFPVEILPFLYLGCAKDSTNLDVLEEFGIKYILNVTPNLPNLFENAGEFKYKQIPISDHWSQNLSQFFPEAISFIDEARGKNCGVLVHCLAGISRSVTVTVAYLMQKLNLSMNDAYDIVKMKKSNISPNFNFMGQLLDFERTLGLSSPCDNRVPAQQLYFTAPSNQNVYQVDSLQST

[27] = biological target: T6, Dual specificity protein phosphatase 6

CCN(CC)CCC(c1cc(OC)c(OC)c(OC)c1)c1c(OC)cc(OC)c2c(-c3ccccc3)cc(=O)oc12 (configuration not stated)
IC50 [1]: > 20 µM (inactive) | IC50 (Vero): 30.8 µM (active)

O=C(NCCCN1CCOCC1)C1CC(=O)N(CCc2ccccc2)C1 (configuration not stated)
IC50 [2]: > 100 µM (active)

O=C1NC(=S)NC(=O)C1=NNc1ccc2c(c1)OCCO2
CC50 [3]: > 40 µM (active)

Cc1cc(/C=C2/NC(=O)N(Cc3ccccc3F)C2=O)c(C)n1C
EC50 [4]: > 79.4 µM (not active) | EC50 [5]: > 79.4 µM (not active) | EC50 [6]: > 79.4 µM (not active)

CC1(C)Cc2c(C#N)c(NCCc3ccccc3)nc(-c3ccco3)c2CO1
IC50 (NS3): 35.3 µM (not active)

CCCCCC(=O)NC(=S)Nc1ccc(Br)cc1C
IC50 [7]: 7.66 µM (active) | IC50 [8]: 6.11 µM (active)

O=C(CSc1nnc[nH]1)NCCOc1ccccc1
IC50 [9]: 28.8 µM (active) | IC50 [10]: > 100 µM (not active) | IC50 [11]: > 100 µM (not active) | IC50 [12]: > 100 µM (not active)

COc1ccc(C(=O)Nn2c(SCC(=O)N3CCC(C)CC3)nc3ccccc3c2=O)cc1
EC50 [13]: < 0.2 µM (active) | EC50 (HT-1080): > 50 µM (not active)

COc1ccccc1-c1cc(C(=O)N2CCc3ccccc3C2)c2ccccc2n1
EC50 [14]: 3.06 µM (active) | IC50 [15]: 28.8 µM (active)

O=C(Nc1sc2c(c1C(=O)O)CCCCC2)c1ccccc1
IC50 [15]: 28.4 µM (active)

CCOC(=O)CS(=O)(=O)c1ccc(O)cc1
EC50 [4]: > 79.4 µM (not active) | EC50 [5]: > 79.4 µM (not active) | EC50 [6]: > 79.4 µM (not active)

CN(C(=O)c1ccco1)c1nc2c(s1)CCCC2
EC50 [13]: > 100 µM (not active) | EC50 (HT-1080): > 50 µM (not active)

Cc1ccc(Cl)cc1-n1ncc2c(NNC(=O)c3ccco3)ncnc21
EC50 [16]: 63.2 µM (not active)

O=C(O)c1[nH]c2ccc(Cl)cc2c1CC(=O)N1CCN(C(=O)c2ccco2)CC1
IC50 [2]: > 100 µM (active)

O=C(c1ccc(Cl)c(S(=O)(=O)N2CCCCCC2)c1)N1CCCCC1
IC50 [17]: 32.7 µM (not active)

CCN(CC)CCN1C(=O)C(O)=C(C(=O)c2cc3ccccc3o2)C1c1cccnc1 (configuration not stated)
IC50 [18]: 2.95 µM (active) | IC50 [19]: > 39.8 µM (not active)

Cc1cccc(CSC2=NCCN2C(=O)c2ccc(Br)o2)c1
IC50 [7]: < 12 µM (not active) | IC50 [8]: 12.8 µM (not active)

CN1CCc2nc3sc(C(=O)C45CC6CC(CC(C6)C4)C5)c(N)c3cc2C1
IC50 [20]: 13.8 µM (not active) | AC50 [21]: 1.82 µM (active) | EC50 [22]: 20.5 µM (active) | EC50 [23]: 27.4 µM (active)

CCOc1ccc(NC(=O)c2c(NC(=O)CN3CCN(C)CC3)sc3c2CCC3)cc1
IC50 (Vero): 18.3 µM (active)

Cc1ccccc1OCC(=O)N/N=C/c1cccc(Oc2ccc([N+](=O)[O-])cc2[N+](=O)[O-])c1
CC50 [3]: 33.9 µM (active)

Cn1c(=O)c2c(nc(N/N=C/c3ccc(OC(=O)c4ccco4)cc3)n2Cc2ccccc2)n(C)c1=O
EC50 [16]: > 100 µM (not active)

O=C1C(/C=N/Cc2cccnc2)=C(O)c2ccccc21
IC50 [24]: 32.1 µM (not active)

COc1ccc(/C=N/n2c(N)nc3ccccc32)cc1OC
IC50 [24]: 16.6 µM (not active)

CCCCCOc1ccc(/C=c2\sc3nc(=O)c(-c4ccccc4)nn3c2=O)cc1OC
IC50 (NS3): > 36.3 µM (not active)

O=C(O)C(O)c1ccccc1 (configuration not stated) [MANDELIC ACID]
IC50 [25]: > 100 µM (not active) | IC50 [26]: > 100 µM (inactive) | IC50 [10]: > 100 µM (not active) | IC50 [11]: > 100 µM (not active) | IC50 [27]: > 100 µM (inactive) | IC50 [12]: > 100 µM (not active)
